Assay results: ChEMBL document CHEMBL5380795, “Design, Synthesis, and Bioactivity Investigation of Cyclic Lipopeptide Antibiotics Containing Eight to Nine Amino Acids” (J Med Chem, 2023)
Values after ≈ are worked out from the molar mass of the structure shown. Bridge positions count the residues as written; N and C are the ends. Square brackets hold non-standard residues; d marks the D form. Peptide text beside a SMILES is read from it. * marks the point of attachment. X1 = CC[C@H](C)CCCCC(=O)*; Dab = NCC[C@H](N)C(=O)O

Assays:
Pseudomonas aeruginosa [1] = experiment: Antibacterial activity against carbapenem resistant Pseudomonas aeruginosa clinical isolate 19-3 assessed as inhibition of bacterial growth incubated for 18 to 24 hrs by broth microdilution method; format: functional; conditions: time 18-24 hrs
Acinetobacter baumannii [2] = experiment: Antibacterial activity against oxacillinase-27 producing Acinetobacter baumannii NCTC 13304 assessed as inhibition of bacterial growth incubated for 18 to 24 hrs by broth microdilution method; format: functional; conditions: time 18-24 hrs
Pseudomonas aeruginosa [3] = experiment: Antibacterial activity against Pseudomonas aeruginosa ATCC 27853 assessed as inhibition of bacterial growth incubated for 18 to 24 hrs by broth microdilution method; format: functional; conditions: time 18-24 hrs
Pseudomonas aeruginosa [4] = experiment: Antibacterial activity against Pseudomonas aeruginosa clinical isolate 19-1 assessed as inhibition of bacterial growth incubated for 18 to 24 hrs by broth microdilution method; format: functional; conditions: time 18-24 hrs
Pseudomonas aeruginosa [5] = experiment: Antibacterial activity against carbapenem resistant Pseudomonas aeruginosa clinical isolate 17-1 assessed as inhibition of bacterial growth incubated for 18 to 24 hrs by broth microdilution method; format: functional; conditions: time 18-24 hrs
[6] = system: Staphylococcus epidermidis; experiment: Antibacterial activity against methicillin resistant Staphylococcus epidermidis clinical isolate 19-6 assessed as inhibition of bacterial growth incubated for 18 to 24 hrs by broth microdilution method; format: functional; conditions: time 18-24 hrs
Klebsiella pneumoniae [7] = experiment: Antibacterial activity against carbapenem resistant Klebsiella pneumoniae clinical isolate 19-17 assessed as inhibition of bacterial growth incubated for 18 to 24 hrs by broth microdilution method; format: functional; conditions: time 18-24 hrs
Acinetobacter baumannii [8] = experiment: Antibacterial activity against carbapenem resistant Acinetobacter baumannii clinical isolate 19-8 assessed as inhibition of bacterial growth incubated for 18 to 24 hrs by broth microdilution method; format: functional; conditions: time 18-24 hrs
Staphylococcus aureus [9] = experiment: Antibacterial activity against methicillin resistant Staphylococcus aureus ATCC 33591 assessed as inhibition of bacterial growth incubated for 18 to 24 hrs by broth microdilution method; format: functional; conditions: time 18-24 hrs
Klebsiella pneumoniae [10] = experiment: Antibacterial activity against KPC producing Klebsiella pneumoniae ATCC BAA-1705 assessed as inhibition of bacterial growth incubated for 18 to 24 hrs by broth microdilution method; format: functional; conditions: time 18-24 hrs
Escherichia coli [11] = experiment: Antibacterial activity against Escherichia coli clinical isolate 19-2 assessed as inhibition of bacterial growth incubated for 18 to 24 hrs by broth microdilution method; format: functional; conditions: time 18-24 hrs
Escherichia coli [12] = experiment: Antibacterial activity against Escherichia coli ATCC BAA-2523 assessed as inhibition of bacterial growth incubated for 18 to 24 hrs by broth microdilution method; format: functional; conditions: time 18-24 hrs
[13] = system: Staphylococcus epidermidis; experiment: Antibacterial activity against methicillin resistant Staphylococcus epidermidis clinical isolate 19-5 assessed as inhibition of bacterial growth incubated for 18 to 24 hrs by broth microdilution method; format: functional; conditions: time 18-24 hrs
[14] = Selectivity index, ratio of IC50 for cytotoxicity against human HK-2 cells to MIC for antibacterial activity against Escherichia coli ATCC BAA-2523; format: toxicity, cell-based
Klebsiella pneumoniae [15] = experiment: Antibacterial activity against carbapenem resistant Klebsiella pneumoniae clinical isolate 19-15 assessed as inhibition of bacterial growth incubated for 18 to 24 hrs by broth microdilution method; format: functional; conditions: time 18-24 hrs
[16] = Cytotoxicity against human HK-2 cells assessed as inhibition of cell growth incubated for 72 hrs by CCK-8 assay; format: toxicity, cell-based
Escherichia coli [17] = experiment: Antibacterial activity against KPC producing Escherichia coli ATCC BAA-2340 assessed as inhibition of bacterial growth incubated for 18 to 24 hrs by broth microdilution method; format: functional; conditions: time 18-24 hrs
Staphylococcus aureus [18] = experiment: Antibacterial activity against Staphylococcus aureus ATCC 29213 assessed as inhibition of bacterial growth incubated for 18 to 24 hrs by broth microdilution method; format: functional; conditions: time 18-24 hrs
Escherichia coli [19] = experiment: Antibacterial activity against Escherichia coli NCTC 13353 assessed as inhibition of bacterial growth incubated for 18 to 24 hrs by broth microdilution method; format: functional; conditions: time 18-24 hrs

Row | SMILES | MIC (Pseudomonas aeruginosa [1]) [µg/mL] | MIC (Acinetobacter baumannii [2]) [µg/mL] | MIC (Pseudomonas aeruginosa [3]) [µg/mL] | MIC (Pseudomonas aeruginosa [4]) [µg/mL] | MIC (Pseudomonas aeruginosa [5]) [µg/mL] | MIC [6] [µg/mL] | MIC (Klebsiella pneumoniae [7]) [µg/mL] | MIC (Acinetobacter baumannii [8]) [µg/mL] | MIC (Staphylococcus aureus [9]) [µg/mL] | MIC (Klebsiella pneumoniae [10]) [µg/mL] | MIC (Escherichia coli [11]) [µg/mL] | MIC (Escherichia coli [12]) [µg/mL] | MIC [13] [µg/mL] | selectivity ratio [14] | MIC (Klebsiella pneumoniae [15]) [µg/mL] | IC50 at 72 h [16] [µg/mL] | MIC (Escherichia coli [17]) [µg/mL] | MIC (Staphylococcus aureus [18]) [µg/mL] | MIC (Escherichia coli [19]) [µg/mL]
1 | CCCCCCCCCC(=O)N[C@H](CCN)C(=O)N[C@H]1CCNC(=O)[C@H]([C@@H](C)O)NC(=O)[C@H](CCN)NC(=O)[C@H](CCN)NC(=O)[C@H](CC(C)C)NC(=O)[C@@H](Cc2ccc(Cl)cc2)NC(=O)[C@H](CCN)NC1=O | 0.5 (≈ 0.476 µM) | 8 (≈ 7.61 µM) | 0.5 (≈ 0.476 µM) | 0.5 (≈ 0.476 µM) | 1 (≈ 0.952 µM) | 4 (≈ 3.81 µM) | 2 (≈ 1.9 µM) | 32 (≈ 30.5 µM) | 16 (≈ 15.2 µM) | 0.5 (≈ 0.476 µM) | 1 (≈ 0.952 µM) | 1 (≈ 0.952 µM) | 0.5 (≈ 0.476 µM) | 48.1 | 2 (≈ 1.9 µM) | 48.1 (≈ 45.8 µM) | 1 (≈ 0.952 µM) | 8 (≈ 7.61 µM) | 2 (≈ 1.9 µM)
2 | CCCCCCCCCC(=O)N[C@H](CCN)C(=O)N[C@H]1CCNC(=O)[C@H]([C@@H](C)O)NC(=O)[C@H](CCN)NC(=O)[C@H](CCN)NC(=O)[C@H](CCCCCCCC)NC(=O)[C@@H](CC(C)C)NC(=O)[C@H](CCN)NC1=O | 2 (≈ 1.93 µM) | 4 (≈ 3.85 µM) | 2 (≈ 1.93 µM) | 2 (≈ 1.93 µM) | 4 (≈ 3.85 µM) | 2 (≈ 1.93 µM) | 2 (≈ 1.93 µM) | 8 (≈ 7.7 µM) | 8 (≈ 7.7 µM) | 2 (≈ 1.93 µM) | 1 (≈ 0.963 µM) | 1 (≈ 0.963 µM) | 1 (≈ 0.963 µM) | 9.1 | 2 (≈ 1.93 µM) | 9.1 (≈ 8.76 µM) | 1 (≈ 0.963 µM) | 8 (≈ 7.7 µM) | 2 (≈ 1.93 µM)
3 | CCCCCCCCCC(=O)N[C@H](CCN)C(=O)N[C@H]1CCNC(=O)[C@H]([C@@H](C)O)NC(=O)[C@H](CCN)NC(=O)[C@H](CCN)NC(=O)[C@H](CC(=O)O)NC(=O)[C@@H](CC(C)C)NC(=O)[C@H](CCN)NC1=O | > 64 | > 64 | > 64 | > 64 | > 64 | > 64 | > 64 | > 64 | > 64 | > 64 | > 64 | > 64 | > 64 |  | > 64 | > 500 | > 64 | > 64 | > 64
4 | CCCCCCCCCC(=O)N[C@H](CCN)C(=O)N[C@H]1CCNC(=O)[C@H](CC(=O)O)NC(=O)[C@H](CCN)NC(=O)[C@H](CCN)NC(=O)[C@H](CC(C)C)NC(=O)[C@@H](CC(C)C)NC(=O)[C@H](CCN)NC1=O | > 64 | > 64 | > 64 | > 64 | > 64 | > 64 | > 64 | > 64 | > 64 | > 64 | > 64 | > 64 | > 64 | < 5.4 | > 64 | 347 (≈ 349 µM) | > 64 | > 64 | > 64
5 | CCCCCCCCCC(=O)N[C@H](CCN)C(=O)N[C@H]1CNC(=O)[C@H]([C@@H](C)O)NC(=O)[C@H](CCN)NC(=O)[C@H](CCN)NC(=O)[C@H](CC(C)C)NC(=O)[C@@H](CC(C)C)NC(=O)[C@H](CCN)NC1=O | > 64 | > 64 | > 64 | > 64 | > 64 | 32 (≈ 33 µM) | > 64 | > 64 | > 64 | > 64 | > 64 | < 64 | 1 (≈ 1.03 µM) |  | > 64 | 68.6 (≈ 70.8 µM) | > 64 | > 64 | > 64
6 | CC[C@H](C)CCCCC(=O)N[C@@H](CCN)C(=O)N[C@H](C(=O)N[C@@H](CCN)C(=O)N[C@H]1CCNC(=O)[C@H]([C@@H](C)O)NC(=O)[C@H](CCN)NC(=O)[C@H](CCN)NC(=O)[C@H](CC(C)C)NC(=O)[C@@H](Cc2ccccc2)NC(=O)[C@H](CCN)NC1=O)[C@@H](C)O (X1-[Dab]T[Dab][Dab][Dab][dF]L[Dab][Dab]T; lactam 4-C) |  |  |  |  |  |  |  |  |  |  |  |  |  | > 932 |  | 55.9 (≈ 46.4 µM) |  |  | 
